Source: publication PMC6104183, “How Female Mice Attract Males: A Urinary Volatile Amine Activates a Trace Amine-Associated Receptor That Induces Male Sexual Interest” (Frontiers in Pharmacology, 2018)

Biological target: T1, TAAR3 (Mus musculus, UniProt Q5QD16)
T1 construct: transiently expressed with Galpha-olf in HEK293 cells
T1 sequence (Q5QD16 1-343): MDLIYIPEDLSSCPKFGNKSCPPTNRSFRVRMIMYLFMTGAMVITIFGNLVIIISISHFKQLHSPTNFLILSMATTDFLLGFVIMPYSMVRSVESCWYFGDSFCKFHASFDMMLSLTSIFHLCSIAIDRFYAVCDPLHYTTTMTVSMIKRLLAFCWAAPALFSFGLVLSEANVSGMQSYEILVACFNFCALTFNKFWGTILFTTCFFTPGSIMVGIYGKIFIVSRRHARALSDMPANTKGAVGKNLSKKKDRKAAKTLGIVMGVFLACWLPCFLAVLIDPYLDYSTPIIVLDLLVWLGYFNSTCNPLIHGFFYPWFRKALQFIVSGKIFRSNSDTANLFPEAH
Experiment: cAMP accumulation, HEK293 cells, luminescence
Assay type: cell-based

With `CC(C)CN` [isobutylamine] the EC50 was 32 nM.
